Here are results for one molecule from publication PMC9694334, “Synthesis and Biological Evaluation of a Fused Structure of Indolizine and Pyrrolo[1,2-c]pyrimidine: Identification of Its Potent Anticancer Activity against Liver Cancer Cells” (Pharmaceuticals, 2022).

Assay type in all cases: cell-based
One experiment has as its system caspase-3. The experiment in a line: Caspase-3 activity assay in Huh7 cells. The note with it: 3 µM 5r for 24 h, Figure 4B. The protocol: HepG2 and Huh7 cells were plated in 96-black-well plate to about 40% confluence, and then 5r was treated for 24 h. To assess activity of caspase-3, the growth medium was changed with 100 μL of PBS containing 1 μM caspase-3 substrate, NucView 488, and incubated at room temperature. After 20 min, 1 μM Hoechst 33342 was treated to stain the cells. Activity of caspase-3 was suppressed by Ac-DEVD-CHO, a selective caspase-3 inhibitor. FLUOstar Omega microplate reader (BMG Labtech, Ortenberg, Germany) was used to assess the fluorescence of NucView 488 and Hoechst, and Lionheart FX Automated Microscope (BioTek, Winooski, VT, USA) was used to acquire the fluorescence microscopy images.
Figure 4 Effect of 5r on activity of caspase-3 and cleavage of PARP in HepG2 and Huh7 cells. (A,B) HepG2 and Huh7 cells were incubated with 3 µM 5r for 24 h and then incubated with 1 µM caspase-3 substrate (green) and 1 µM Hoechst 33,342 (blue) for 20 min before image acquisition. (C,D) Cells were cultured with 5r at the indicated concentrations for 24 h and then 1 μM caspase-3 substrate was treated for 20 min. Caspase-3 was inhibited by 20 μM Ac-DEVD-CHO (mean ± S.D., n = 3). (E,F) Cells were cultured with 5r at the indicated concentrations for 24 h, and expression level of PARP, cleaved-PARP and β-actin were measured by Western blot analysis. […]

For experiment [1], the system named is cleaved PARP. The experiment in a line: Western blot analysis of cleaved PARP in Huh7 cells. The note with it: 24 h, Figure 4F,H. On the procedure:
(§1) For Western blot analysis, HepG2 and Huh7 cells were lysed with RIPA buffer (50 mM Tris-HCl, PH 7.4, 1% Nonidet P-40, 0.25% sodium deoxycholate, 150 mM NaCl, 1 mM EDTA, 1 mM Na3VO4, and protease inhibitor). Lysed samples were centrifuged at 13,000 RPM for 20 min at 4 °C to remove the cell debris, and equal amounts (60 μg protein/lane) of supernatant protein were divided by 4–12% Tris Glycine Precast Gel (KOMA BIOTECH, Seoul, Korea). Then, PVDF membranes (Millipore, Billerica, MA, USA) were used to transfer the separated proteins. Membrane blocking was performed by Tris-buffered saline with 0.1% Tween 20 (TBST) containing 5% bovine serum albumin (BSA) at room temperature for 50 min. The membranes were incubated with primary antibodies overnight at 4 °C with the indicated primary antibodies: anti-cleaved PARP (BD Biosciences) and anti-β-actin (Santa Cruz Biotechnology, Dallas, TX, USA). […] After 1 h, membranes were detected by using ECL Plus Western blotting detection system (GE Healthcare, Piscataway, NJ, USA).
(§2) Figure 4 Effect of 5r on activity of caspase-3 and cleavage of PARP in HepG2 and Huh7 cells. […] (E,F) Cells were cultured with 5r at the indicated concentrations for 24 h, and expression level of PARP, cleaved-PARP and β-actin were measured by Western blot analysis. […]
Background: A western blot detects proteins with antibodies after separation by electrophoresis.

For experiment [2], the system named is Huh7 cells. The experiment in a line: Combination of 5r with gemcitabine, cell viability (MTS) in Huh7 cells. The conditions noted are these: co-treatment with gemcitabine (0.3 μM), 72 h. On the procedure: (§3) Cell viability assay was conducted using Cell Titer 96® AQueous One Solution Cell proliferation Assay kit (Promega, Madison, WI, USA). Five cancer cells and HaCaT cells were plated in 96-well microplates with growth medium for 24 h. When cell confluency reached ~30%, cells were treated with DMSO (vehicle) and test compounds. The medium and test compounds were replaced every 24 h. To measure cell viability, the cells were incubated with MTS solution for 1 h. The absorbance was measured by using Infinite M200 microplate reader (Tecan, Männedorf, Switzerland) at 490 nm.
Figure 6 Combination effect of 5r and gemcitabine on cell viability in HepG2 and Huh7 cells. (A,B) HepG2 and Huh7 cells were cultured with the indicated concentrations of 5r and gemcitabine (0.3 μM) for 72 h, and medium was replaced every 24 h with freshly added 5r and gemcitabine. Cell viability was determined by MTS analysis (mean ± S.D., n = 5). ** p < 0.01, *** p < 0.001.

Experiment [3] deals with HepG2 cells. The experiment in a line: Cell viability assay (MTS) in HepG2 cells. The conditions noted are these: Homo sapiens, MTS, mean, n = 5, 72 h for 5r (Figure 2). The protocol: (§4) HepG2, Huh7, H1299, HT29, AGS and A549 cells were purchased from the Korean Cell Line Bank (Seoul, Korea) and HaCaT cells were obtained from Prof. Sohee Kwon (Yonsei University, Korea). Liver cancer cells (HepG2), human keratinocyte cells (HaCaT), and lung cancer cells (A549) were grown in DMEM high-glucose medium, liver cancer cells (Huh7) and non-small cell lung cancer cells (H1299) were grown in RPMI 1640, and gastric cancer cells (AGS) were grown in Coon’s modified F12 medium. All media were supplemented with 10% FBS, 100 Units/mL penicillin, and 100 μg/mL streptomycin. All cells were incubated at 37 °C, 5% CO2 and 95% humidity.
as §3
(§5) Figure 2 Effect of 5r on cell viability in HepG2, Huh7, AGS, H1299, A549, HaCaT, NIH3T3, and HEK293T cells. (A–H) HepG2, Huh7, AGS, H1299, A549, HaCaT, NIH3T3, and HEK293T cells were cultured with 5r at the indicated concentrations for 72 h, and medium was replaced every 24 h with freshly added 5r. Cell viability was measured by MTS analysis (mean ± S.D., n = 5). * p < 0.05, ** p < 0.01, *** p < 0.001.

Experiment [4] deals with cleaved PARP. Briefly: Western blot analysis of cleaved PARP in HepG2 cells. The note with it: 24 h, Figure 4E,G. On the procedure:
as §1, §2

The test system of experiment [5] is HepG2 cells. Briefly: In vitro wound-healing assay in HepG2 cells. The note with it: Figure 3. On the procedure: (§6) The suppressive effect of 5r on cell migration was assessed through in vitro wound-healing assay. HepG2 and Huh7 cells were grown to approximately 100% confluence to form a monolayer in a 96-well microplate. Wounds were formed through 96-well wound maker (Essen BioScience, Ann Arbor, MI, USA). Then, growth medium was removed and washed out twice with phosphate-buffered saline (PBS) and incubated with 200 μL of DMEM and RPMI 1640 medium containing 5r or vehicle (DMSO). Images of the wound area were taken by using IncuCyte ZOOM (Essen BioScience, Ann Arbor MI, USA), and the percentage of wound closure was measured by using IncuCyte software.
(§7) Figure 3 Inhibitory effect of 5r on cell migration in HepG2 and Huh7 cells. (A,B) In vitro wound-healing assay was performed in HepG2 and Huh7 cells (mean ± S.D., n = 3). HepG2 and Huh7 cells were treated with the indicated concentrations of 5r, and time-lapse images were acquired every 2 h after wound infliction. (C,D) Representative images were taken at 0, 48, or 72 h following administration of 5r at the indicated concentrations.

Experiment [6] has as its system Huh7 cells. The experiment in a line: In vitro wound-healing assay in Huh7 cells. The conditions noted are these: Figure 3. On the procedure:
as §6, §7

For experiment [7], the system named is Huh7 cells. Briefly: Cell viability assay (MTS) in Huh7 cells. The note with it: Homo sapiens, Huh-7, mean, n = 5, 72 h for 5r (Figure 2). On the procedure:
as §4, §3, §5

The IC50 is the concentration needed to halve the response being measured. Regarding `N#Cc1c2c3cccn3c(-c3ccccc3O)nc2n2ccccc12` [Compound 5r, 5-(2-Hydroxyphenyl)pyrrolo[1′,2′:1,6]pyrimido[5,4-b]indolizine-12-carbonitrile], the “Caspase-3 activity in Huh7 cells” value with caspase-3 is “potently increased caspase-3 activity”. The “Expression level of cleaved PARP in Huh7 cells” value with cleaved PARP [1] is listed as “increased the expression level of cleaved PARP in a dose-dependent manner”. Further, the “Combination effect with gemcitabine on cell viability in Huh7 cells” value in the experiment with Huh7 cells [2] is given as “additional effect rather than a synergistic effect”. Besides, the figures for the IC50 in the experiment with HepG2 cells [3] and in the experiment on Huh7 cells [7] were 0.22 µM and 0.1 µM, respectively. The “Expression level of cleaved PARP in HepG2 cells” value with cleaved PARP [4] is on record as “increased the expression level of cleaved PARP in a dose-dependent manner”. Also, the “Effect on cell migration (wound closure) in HepG2 cells” value in the experiment on HepG2 cells [5] is “significantly inhibited cell migration in a dose-dependent manner”. Further, the “Effect on cell migration (wound closure) in Huh7 cells” value in the experiment with Huh7 cells [6] is “significantly inhibited cell migration in a dose-dependent manner”.
